IC50 and MIC data for eleven molecules are collected here from patent US12692253B2, “Antimicrobial compounds and methods” (Curza Global, LLC, priority 2019, dated 2026).

The subject of assay [1] is E. coli S30 extract (bacterial protein synthesis). Description: E. coli S30 extract coupled transcription-translation luciferase assay (inhibition of bacterial protein synthesis). The following applies: read-out: S30 IC50 (μM/% inhib.). Type of assay: biochemical. In short, it runs like this:
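Luciferase luminescence quantified inhibition of protein synthesis relative to water controls, with no-DNA reactions giving background. Compounds in 2-fold serial dilution (8 levels) were incubated 1 hour at 37 °C with E. coli S30 extract, amino acids and pBESTluc plasmid, then chilled to stop.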

In assay [2] the target is Rabbit Reticulocyte Lysate (eukaryotic protein synthesis). Description: Rabbit reticulocyte lysate luciferase assay (inhibition of eukaryotic protein synthesis). It counts as biochemical. Conditions: read-out: Rabbit reticulocyte IC50 (μM/% inhib.). In short, it runs like this:
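Percent inhibition calculated against water-only controls from luminescence; background set by lysate lacking RNA. Compounds, 8-point 2-fold titration, incubated 90 minutes at 30° C with nuclease-treated rabbit reticulocyte lysate programmed with luciferase control RNA plus complete amino acids.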

The test system of assay [3] is A. baumannn (Ab). Kind of assay: Broth microdilution minimum inhibitory concentration (MIC), CLSI. Conditions: read-out: Ab + bicarb MIC. Type of assay: cell-based. In short, it runs like this: (§1)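 CLSI M07-A9 broth microdilution, slightly modified: 8 two-fold compound dilutions in triplicate, CAMHB ± bicarbonate (6.25 or 25 mM final) or 0-50% heat-inactivated human serum; 5×10^4 CFU/well.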
In general terms: In broth dilution the organism is exposed to a series of concentrations in liquid medium.

For assay [4], the system named is E. coli (Ec). The assay is described as above. It counts as cell-based. The following applies: Escherichia coli, read-out: E. coli + bicarb MIC. A digest of the protocol:
as §1

The subject of assay [5] is E. faecalis (Ef). The assay is described as above. Type of assay: cell-based. The following applies: Enterococcus faecalis, read-out: Ef + bicarb MIC. A digest of the protocol: as §1
The test system of assay [6] is P. aeruginosa (Pa). Described as above. Type of assay: cell-based. Conditions: Pseudomonas aeruginosa, read-out: Pa MIC + bicarb. In short, it runs like this:
as §1

Assay [7] deals with S. aureus (Sa). Described as above. Type of assay: cell-based. The following applies: Staphylococcus aureus, read-out: Sa + bicarb MIC. In short, it runs like this:
as §1

[8] abbreviates: class by IC50 or % inhibition @ 1 μM.
Setting [9] is: growth medium supplemented with sodium bicarbonate.
[10] abbreviates: A. baumannn, growth medium with sodium bicarbonate.
Where [11] appears, read: growth medium with sodium bicarbonate.

As a reminder, the MIC is the lowest concentration found to suppress growth.

Structures are written as SMILES. Where two headings read alike, the source gives them in different places.

Consider `CC(Cc1ccc(-n2ccc(NC(=O)N3CCN(C(=O)C(C)(C)N)CC3)nc2=O)cc1)N1C[C@@H]2[C@@H](CN)[C@@H]2[C@H]1CO` (some centres unmarked) [Compound 157], for which the IC50 in assay [1] (setting [8]) is under 0.5 µM; in assay [2] (setting [8]), at least 1 µM. In addition, the MIC in assay [3] (Acinetobacter baumannii) was over 32 µg/mL; in assay [4] (setting [9]) it was under 8 µg/mL; in assay [5] (setting [9]), 8 to 32 µg/mL; in assay [6] (setting [9]), over 32 µg/mL; in assay [7] (setting [9]), under 8 µg/mL.

For the molecule `CC(C)(N)C(=O)N1CCN(C(=O)Nc2ccn(-c3ccc(CCN4CC5(CNC5)C4)cc3)c(=O)n2)CC1` [Compound 160], the IC50 in assay [1] (setting [8]) and in assay [2] (setting [8]) was at least 1 µM in each case. Moreover, the MIC in assay [3] (Acinetobacter baumannii) was over 32 µg/mL; in assay [4] (setting [9]) it was under 8 µg/mL; in assay [5] (setting [9]), over 32 µg/mL; in assay [6] (setting [9]) it was over 32 µg/mL; in assay [7] (setting [9]) it was over 32 µg/mL.

In the case of `CC(C)(N)C(=O)N1CCN(C(=O)Nc2ccn(-c3ccc(CCN4CCC5(CCNC5)C4)cc3)c(=O)n2)CC1` (centres unmarked) [Compound 161], the results for the IC50 in assay [1] (setting [8]) and in assay [2] (setting [8]) were under 0.5 µM and at least 1 µM, respectively. Moreover, the MIC in assay [3] (Acinetobacter baumannii) is over 32 µg/mL; in assay [4] (setting [9]), under 8 µg/mL; in assay [5] (setting [9]), 8 to 32 µg/mL; in assay [6] (setting [9]), over 32 µg/mL; in assay [7] (setting [9]) it was under 8 µg/mL.

For the molecule `CC(Cc1ccc(-n2ccc(NC(=O)N3CCN(C(=O)C(C)(C)N)CC3)nc2=O)cc1)N1CC2(CNC2)C1` (centres unmarked) [Compound 162], the IC50 in assay [1] (setting [8]) and in assay [2] (setting [8]) was at least 1 µM throughout. Moreover, the MIC is over 32 µg/mL in assay [3] (Acinetobacter baumannii); 8 to 32 µg/mL in assay [4] (setting [9]); over 32 µg/mL in assay [5] (setting [9]); over 32 µg/mL in assay [6] (setting [9]); 8 to 32 µg/mL in assay [7] (setting [9]).

With `CC(Cc1ccc(-n2ccc(NC(=O)N3CCN(C(=O)C(C)(C)N)CC3)nc2=O)cc1)N1CCC2(CC1)CNC2` (centres unmarked) [Compound 163], the IC50 in assay [1] (% inhibition @ 1 μM) and in assay [2] (% inhibition @ 1 μM) was at least 1 µM each time. Further, the MIC in assay [3] (setting [10]) is over 32 µg/mL; in assay [4] (setting [11]), under 8 µg/mL; in assay [5] (setting [11]), over 32 µg/mL; in assay [6] (setting [11]), over 32 µg/mL; in assay [7] (setting [11]), under 8 µg/mL.

For the molecule `CN(Cc1ccc(-n2ccc(NC(=O)N3CCN(C(=O)C(C)(C)N)CC3)nc2=O)cc1)C12CCC(N)(CC1)C2` [Compound 164], the figures for the IC50 in assay [1] (% inhibition @ 1 μM) and in assay [2] (% inhibition @ 1 μM) were under 0.5 µM and at least 1 µM, respectively. In addition, the MIC is 8 to 32 µg/mL in assay [3] (setting [10]); under 8 µg/mL in assay [4] (setting [11]); under 8 µg/mL in assay [5] (setting [11]); over 32 µg/mL in assay [6] (setting [11]); under 8 µg/mL in assay [7] (setting [11]).

Consider `CN(Cc1ccc(-n2ccc(NC(=O)N3CCN(C(=O)C(C)(C)N)CC3)nc2=O)cc1)C12CCC(N)(CC1)CC2` [Compound 165], for which the IC50 in assay [1] (% inhibition @ 1 μM) was 0.5 to 1 µM; in assay [2] (% inhibition @ 1 μM), at least 1 µM. Besides, the MIC in assay [3] (setting [10]) is 8 to 32 µg/mL; in assay [4] (setting [11]) it was under 8 µg/mL; in assay [5] (setting [11]) it was under 8 µg/mL; in assay [6] (setting [11]) it was over 32 µg/mL; in assay [7] (setting [11]), under 8 µg/mL.

Regarding `CCN(Cc1ccc(-n2ccc(NC(=O)N3CCN(C(=O)C(C)(C)N)CC3)nc2=O)cc1)C12CCC(N)(CC1)C2` [Compound 166], the IC50 in assay [1] (% inhibition @ 1 μM) was under 0.5 µM; in assay [2] (% inhibition @ 1 μM), at least 1 µM. In addition, the MIC in assay [3] (setting [10]) is 8 to 32 µg/mL; in assay [4] (setting [11]), under 8 µg/mL; in assay [5] (setting [11]), under 8 µg/mL; in assay [6] (setting [11]), over 32 µg/mL; in assay [7] (setting [11]), under 8 µg/mL.

With `CC(C)(N)C(=O)N1CCN(C(=O)Nc2ccn(-c3ccc(CNC45CCC(N)(CC4)CC5)cc3)c(=O)n2)CC1` [Compound 167], the IC50 in assay [1] (% inhibition @ 1 μM) was under 0.5 µM; in assay [2] (% inhibition @ 1 μM) it was at least 1 µM. For the same molecule, the MIC is 8 to 32 µg/mL in assay [3] (setting [10]); under 8 µg/mL in assay [4] (setting [11]); under 8 µg/mL in assay [5] (setting [11]); 8 to 32 µg/mL in assay [6] (setting [11]); under 8 µg/mL in assay [7] (setting [11]).

Turning to `CC(C)(N)C(=O)N1CCN(C(=O)Nc2ccn(-c3ccc(CNC45CCC(N)(CC4)C5)cc3)c(=O)n2)CC1` [Compound 168], the IC50 is under 0.5 µM in assay [1] (% inhibition @ 1 μM) and at least 1 µM in assay [2] (% inhibition @ 1 μM). The MIC in assay [3] (setting [10]) was over 32 µg/mL; in assay [4] (setting [11]) it was under 8 µg/mL; in assay [5] (setting [11]), under 8 µg/mL; in assay [6] (setting [11]), over 32 µg/mL; in assay [7] (setting [11]) it was under 8 µg/mL.

Take `CN(Cc1ccc(-n2ccc(NC(=O)N3CCN(C(=O)C(C)(C)N)CC3)nc2=O)cc1)C12CC(N)(C1)C2` [Compound 169]: the IC50 in assay [1] (% inhibition @ 1 μM) and in assay [2] (% inhibition @ 1 μM) was at least 1 µM in each case. Also, the MIC in assay [3] (setting [10]) was over 32 µg/mL; in assay [4] (setting [11]), 8 to 32 µg/mL; in assay [5] (setting [11]), over 32 µg/mL; in assay [6] (setting [11]), over 32 µg/mL; in assay [7] (setting [11]), over 32 µg/mL.
